Laboratory results reported in patent US20230391841A1, “MACROCYCLIC PEPTIDES” (Herantis Pharma OYJ, priority 2019, published 2023).
Bridge positions count the residues as written; N and C are the ends. Peptide text beside a SMILES is read from it.

Columns and labels:
[1] = tested on: dopaminergic TH-positive neurons injured with MPP+; assay: Neuroprotective effect on dopaminergic TH-positive neurons injured with MPP+ (primary mesencephalic culture); assay type: cell-based, rat; settings: MPP+ injured TH-positive neurons
Method: Neuroprotective effects of compounds 1-26 (SEQ ID NO: 1-26) were tested in an in vitro model in which primary cultures of rat embryonic mesencephalic neurons were stressed with MPP+ , the active metabolite of neurotoxin 1-methyl-4-phenyl-1,2,3,6-tetrahydropyridine (MPTP). MPP+ kills dopaminergic (TH-positive) neurons via a variety of toxic mechanisms, including mitochondrial dysfunction, generation of peroxynitrite, oxidative stress, ER stress and induction of apoptosis.
Culture of mesencephalic neurons. Rat dopaminergic neurons were cultured as described by Visanji et al., 2008. Briefly, the midbrains obtained from 15-day-old rat embryos (Janvier, France) were dissected, and the ventral portion of the mesencephalic flexure, a region of the developing brain rich in dopaminergic neurons, was used for the cell preparations. The midbrain cells were dissociated by trypsinization for 20 min at 37° C. (solution at a final concentration of 0.05% trypsin and 0.02% EDTA). The reaction was stopped by adding Dulbecco's modified Eagle's medium (DMEM) containing DNAase I grade II (0.5 mg/mL) and 10% of fetal calf serum (FCS). Cells were then mechanically dissociated by 3 passages through a 10 ml pipette. Cells were then centrifuged at 180×g for 10 min at +4° C. on a layer of BSA (3.5%) in L15 medium. The cell pellets were re-suspended in a defined culture serum-free medium consisting of Neurobasal (Invitrogen) supplemented with B27 (2%), L-glutamine (2 mM) and 2% of PS solution and 1Ong/ml of Brain-derived neurotrophic factor (BDNF) and 1 ng/mL of Glial-Derived Neurotrophic Factor (GDNF). Viable cells were counted in a Neubauer cytometer using the trypan blue exclusion test. The cells were seeded at a density of 40 000 cells/well in 96 well-plates (pre-coated with poly-L-lysine) and maintained in a humidified incubator at 37° C. in 5% CO2/95% air atmosphere. Half of the medium was changed every 2 days with fresh medium. On 96-wells plates, only 60 wells are used. To avoid any edge effect, the first and last lines and columns were not used for culture and were filled with sterile water.
CDNF as well as linear and macrocyclic compounds […] (SEQ ID NOs: 1-26) were tested. On day 6 of culture, the compounds were dissolved in culture medium and then pre-is incubated with mesencephalic neurons for 4 hours before the MPP+ application. Four hours after the preincubation of the compounds, MPP+ was added to a final concentration of 4 pM, diluted in control medium still in presence of compounds for 48 h.
48 h after intoxication, the cells were fixed by a solution of 4% paraformaldehyde in PBS, pH 7.3 for 20 min at room temperature. The cells were washed twice in PBS, and then permeabilized and non-specific sites were blocked with a solution of PBS containing 0.1% of saponin and 1% FCS for 15 min at room temperature. Next, the cells were incubated with (a) a monoclonal antibody anti-Tyrosine Hydroxylase (TH) produced in mouse at dilution of 1:10000 and with (b) a polyclonal antibody anti-alpha-synuclein (α-syn) antibody produced in rabbit at dilution of 1:400 in PBS containing 1% FCS, 0.1% saponin, for 2 h at room temperature.
48 h after intoxication, the cell culture supernatant was removed, and the cells fixed by a solution of 4% paraformaldehyde in PBS, pH 7.3 for 20 min at room temperature. The cells were washed twice in PBS, and then permeabilized and non-specific sites were blocked with a solution of PBS containing 0.1% of saponin and 1% FCS for 15 min at room temperature. Then, the cells were incubated with a) a monoclonal Anti-Tyrosine Hydroxylase (TH) antibody produced in mouse at dilution of 1:10000 in PBS containing 1% FCS, 0.1% saponin, for 2 hours at room temperature, and b) a polyclonal anti-postsynaptic density protein-95 (PSD-95) antibody produced in rabbit at dilution of 1:200 in PBS containing 1% FCS, 0.1% saponin, for 2 h at room temperature. This antibody stains specifically synapses. […]

human hepatocytes = assay: In vitro metabolic stability in human hepatocytes; assay type: in vitro ADME; settings: 1 μM, 37° C., up to 60 min
Method: The linear or macrocyclic compounds 1-8, 11-14 and 23-26 (SEQ ID NOs: 1-8, 11-14 and 23-26) were incubated in concentration 1 μM with pooled cryopreserved human hepatocytes (mixed gender; 400 pl, 1.0 million viable cells/ml) for different time points (0, 20, 40 or 60 min) at 37° C. The cell density and viability were determined by trypan blue is exclusion method. The incubation was terminated by acetonitrile. The collected samples were centrifuged for 20 min at 2272×g and analyzed. The samples were analyzed by UPLC/PDA with high resolution mass spectrometry (QE-Orbitrap-MS on DDI mode) to monitor disappearance of the compound. Verapramil 1 μM was used as a disappearance rate control. The analytical method was optimized by using the parent compounds for optimum chromatographic properties (peak shape and retention) and mass spectrometric ionization. The Ion chromatograms were extracted from the total ion chromatograms using calculated monoisotopic accurate masses with 5 mDa window. Disappearance was based on LC/MS peak areas, marking 0 min as 100%. The first-order rate constants k (min-1) of the metabolism were obtained from the slope of time versus logarithm (% of remaining compound) plot using Excel software. The in vitro half-life (t1/2) of study compound is defined as: t1/2In2/k. Calculated half-life is based on compound disappearance in human liver hepatocytes.

rat hepatocytes = assay: In vitro metabolic stability in rat hepatocytes; assay type: in vitro ADME; settings: 1 μM, 37° C., up to 60 min
Method: The linear or macrocyclic compounds 1-14 and 23-26 (SEQ ID NOs: […]) were incubated in concentration 1 μM with pooled cryopreserved rat hepatocytes (Sprague-Dawley, male; 400 pl, 1.0 million viable cells/ml for compounds 1-8, 11-12 and 23-26 or 100 μl, 0.1 million viable cells/ml for compounds 9-10 and 13-14) for different time points (0, 10, 20, 40 or 60 min) at 37° C. The cell density and viability were determined by trypan blue exclusion method. The incubation was terminated by acetonitrile. The collected samples were centrifuged for 20 min at 2272×g and analyzed. The samples were analyzed is by UHPLC/PDA with high resolution mass spectrometry (QE-Orbitrap-MS on DDI mode) (compounds 1-8, 11-12 and 23-26) or HHPLC-ToF mass spectrometry (for compounds 9-and 13-14) to monitor disappearance of the compound. Verapramil 1 μM was used as a disappearance rate control. The analytical method was optimized by using the parent compounds for optimum chromatographic properties (peak shape and retention) and mass spectrometric ionization. The Ion chromatograms were extracted from the total ion chromatograms using calculated monoisotopic accurate masses with 5 mDa window. Disappearance was based on LC/MS peak areas, marking 0 min as 100%. The first-order rate constants k (min-1) of the metabolism were obtained from the slope of time versus logarithm (% of remaining compound) plot using Excel software. The in vitro half-life (t1/2) of study compound is defined as: t1/2In2/k. Calculated half-life is based on compound disappearance in rat liver hepatocytes.

Row | Structure (SMILES) | potency of macrocyclic peptide versus its linear counterpart [1] | stability in human hepatocytes as compared to linear counterpart (human hepatocytes) | stability in rat hepatocytes as compared to linear counterpart (rat hepatocytes)
1 | C[C@@H]1NC(=O)CNC(=O)[C@H](CCCNC(=N)N)NC(=O)[C@@H]2CSSC[C@H](NC1=O)C(=O)N[C@@H](C)C(=O)N[C@@H](CCC(=O)O)C(=O)N[C@@H](CCCCN)C(=O)N[C@@H]([C@@H](C)O)C(=O)N[C@@H](Cc1c[nH]c3ccccc13)C(=O)NCC(=O)N[C@@H](CCC(=O)O)C(=O)N[C@@H](CCC(=O)O)C(=O)N2 [Compound 24, WGEECRGACAEKT] (cyclo(ACAEKTWGEECRG); disulfide 2-11) | comparable | significantly improved stability | significantly improved stability
2 | C[C@@H]1NC(=O)[C@@H]2CSSC[C@H](NC(=O)[C@H]([C@@H](C)O)NC(=O)[C@H](CCC(=O)O)NC(=O)CNC(=O)[C@H](Cc3c[nH]c4ccccc34)NC(=O)[C@H](CO)NC(=O)[C@H](CCCCN)NC(=O)[C@H](CCC(=O)O)NC1=O)C(=O)N[C@@H](CCCCN)C(=O)NCC(=O)NCC(=O)N2 [Compound 26, WGETCKGGCAEKS] (cyclo(AEKSWGETCKGGC); disulfide 9-13) | comparable | significantly improved stability | significantly improved stability
